The source made the active and inactive calls. No cut-off for these calls is given here.
Columns and labels:
[1] = test system: HCC1937; assay: Antiproliferative activity against human HCC1937 cells assessed as cell growth inhibition
[2] = test system: MCF7; assay: Induction of cell cycle arrest at G2/M phase in human MCF7 cells at 4 uM in presence of 1:1 of compound:Olaparib by Annexin-V-FLUOS staining based flow cytometry; format: functional
[3] = test system: MDA-MB-436; assay: cells; details: Homo sapiens
[4] = test system: MDA-MB-231; assay: Antiproliferative activity against human MDA-MB-231 cells assessed as cell growth inhibition
[5] = test system: MDA-MB-231; assay: Induction of DNA damage in human MDA-MB-231 cells xenografted in BALB/c nude mouse assessed as increase in gamma-H2AX level at 50 mg/kg, po for 14 days in presence of 1:1 of compound:Olaparib by Western blot analysis; format: functional, organism-based; details: time 14.0 day
[6] = test system: MCF7; assay: Induction of apoptosis in human MCF7 cells assessed as decrease in Bcl-2 level at 4 uM incubated for 2 days in presence of 1:1 of compound:Olaparib by immunoblot analysis; format: functional, cell-based; details: time 2.0 day
[7] = test system: MCF7; assay: Induction of DNA damage in human MCF7 cells assessed as increase in comet tail length at 4 uM in presence 1:1 of Olaparib by alkaline comet assay; format: functional, cell-based
[8] = test system: MDA-MB-231; assay: Induction of DNA damage in human MDA-MB-231 cells assessed as increase in comet tail length at 4 uM in presence 1:1 of Olaparib by alkaline comet assay; format: functional, cell-based
[9] = test system: HUVEC; assay: cells; details: Homo sapiens, 48 h
[10] = test system: MDA-MB-231; assay: Antimigratory activity in human MDA-MB-231 cells assessed as downregulation of MMP-2 level at 4 uM by DAPI staining based immunofluorescence analysis; format: functional, cell-based
[11] = test system: MDA-MB-231; assay: Antiinvasive activity against human MDA-MB-231 cells at 4 uM incubated for 12 hrs in presence of 1:1 of compound:Olaparib by transwell assay; format: functional, cell-based
[12] = test system: MDA-MB-231; assay: Downregulation of PAR expression in human MDA-MB-231 cells xenografted in BALB/c nude mouse at 25 to 50 mg/kg, po for 14 days in presence of 1:1 of compound:Olaparib by Western blot analysis; format: functional, organism-based; details: dose 25-50 mg/kg, time 14.0 day
[13] = target: Vascular endothelial growth factor receptor 2 (Homo sapiens, UniProt P35968); details: MDA-MB-231, dose 50.0 mg/kg, route po, time 14.0 day
[14] = test system: MCF7; assay: Induction of cell cycle arrest at G2/M phase in human MCF7 cells at 4 uM by Annexin-V-FLUOS staining based flow cytometry; format: functional
[15] = test system: HCC1937; assay: cells; details: Homo sapiens
[16] = test system: MDA-MB-231; assay: Antiproliferation activity against human MDA-MB-231 cells assessed as decrease in Ki67 expression at 4 uM incubated for 48 hrs in presence of 1:1 of compound:Olaparib by immunofluorescence analysis; format: functional, cell-based
[17] = test system: MDA-MB-231; assay: Induction of HR DNA repair in human MDA-MB-231 cells xenografted in BALB/c nude mouse assessed as decrease in FOXM1 level at 50 mg/kg, po for 14 days in presence of 1:1 of compound:Olaparib by H and E staining based IHC analysis; format: functional, organism-based; details: time 14.0 day
[18] = test system: MDA-MB-231; assay: Induction of cell cycle arrest at G2/M phase in human MDA-MB-231 cells at 4 uM in presence of 1:1 of compound:Olaparib by Annexin-V-FLUOS staining based flow cytometry; format: functional
[19] = test system: MDA-MB-231; assay: Antimigratory activity in human MDA-MB-231 cells assessed as downregulation of MMP-2 level at 4 uM incubated for 2 days by immunoblot analysis; format: functional, cell-based; details: time 2.0 day
[20] = test system: MDA-MB-231; assay: Induction of HR DNA repair in human MDA-MB-231 cells assessed as decrease in RAD51 level at 4 uM incubated for 48 hrs in presence of 1:1 of compound:Olaparib by DAPI staining based immunofluorescence analysis; format: functional, cell-based
[21] = test system: MDA-MB-231; assay: Induction of HR DNA repair in human MDA-MB-231 cells xenografted in BALB/c nude mouse assessed as decrease in RAD51 level at 50 mg/kg, po for 14 days in presence of 1:1 of compound:Olaparib by Western blot analysis; format: functional, organism-based; details: time 14.0 day
[22] = target: Poly [ADP-ribose] polymerase 1 (Homo sapiens, UniProt P09874); assay: Inhibition of PARP1 in human MDA-MB-231 cells xenografted in BALB/c nude mouse at 50 mg/kg, po for 14 days in presence of 1:1 of compound:Olaparib by H and E staining based IHC analysis; format: organism-based; details: time 14.0 day
[23] = test system: MCF7; assay: Antimigratory activity in human MCF7 cells assessed as upregulation of E-cadherin level at 4 uM in presence of 1:1 of compound:Olaparib by DAPI staining based immunofluorescence analysis; format: functional, cell-based
[24] = test system: MDA-MB-231; assay: Downregulation of Olaparib-induced PAR expression in human MDA-MB-231 cells at 4 uM incubated for 2 days by Western blot analysis; format: functional, cell-based; details: time 2.0 day
[25] = test system: MDA-MB-231; assay: Antimigratory activity in human MDA-MB-231 cells xenografted in lungs of BALB/c nude mouse assessed as increase in E-cadherin level in lungs at 50 mg/kg administered once a day measured after 14 days in presence of 1:1 of compound:Olaparib by IHC analysis; format: functional, organism-based; details: time 14.0 day
[26] = test system: MDA-MB-231; assay: Antimetastatic activity against human MDA-MB-231 cells xenografted in lungs of BALB/c nude mouse assessed as decrease in lung metastatic nodules at 50 mg/kg administered once a day measured after 14 days in presence of 1:1 of compound:Olaparib; format: functional, organism-based; details: time 14.0 day
[27] = test system: MDA-MB-231; assay: Antiproliferation activity against human MDA-MB-231 cells xenografted in BALB/c nude mouse assessed as decrease in Ki67 expression at 50 mg/kg, po for 14 days in presence of 1:1 of compound:Olaparib by H and E staining based IHC analysis; format: functional, organism-based; details: time 14.0 day
[28] = test system: MDA-MB-231; assay: Antimigratory activity in human MDA-MB-231 cells assessed as upregulation of E-cadherin level at 4 uM incubated for 2 days in presence of 1:1 of compound:Olaparib by immunoblot analysis; format: functional, cell-based; details: time 2.0 day
[29] = test system: MCF7; assay: Induction of hypoxia in human MCF7 cells assessed as upregulation of HIF-1alpha level at 4 uM incubated for 2 days in presence 1:1 of Olaparib by Western blot analysis; format: functional, cell-based; details: time 2.0 day
[30] = test system: MCF7; assay: Antimigratory activity in human MCF7 cells assessed as upregulation of E-cadherin level at 4 uM incubated for 2 days in presence of 1:1 of compound:Olaparib by immunoblot analysis; format: functional, cell-based; details: time 2.0 day
[31] = test system: MDA-MB-231; assay: Induction of cell cycle arrest at G2/M phase in human MDA-MB-231 cells at 4 uM by Annexin-V-FLUOS staining based flow cytometry; format: functional
[32] = test system: MDA-MB-231; assay: Induction of HR DNA repair in human MDA-MB-231 cells xenografted in BALB/c nude mouse assessed as decrease in BRCA1 level at 50 mg/kg, po for 14 days in presence of 1:1 of compound:Olaparib by H and E staining based IHC analysis; format: functional, organism-based; details: time 14.0 day
[33] = test system: MDA-MB-231; assay: cells; details: Homo sapiens
[34] = test system: MDA-MB-231; assay: Inhibition of colony formation in human MDA-MB-231 cells at 4 uM incubated for 10 days in presence of 1:1 of compound:Olaparib by crystal violet staining based assay; format: functional, cell-based; details: time 10.0 day

Sequence of Poly [ADP-ribose] polymerase 1 (P09874 whole entry): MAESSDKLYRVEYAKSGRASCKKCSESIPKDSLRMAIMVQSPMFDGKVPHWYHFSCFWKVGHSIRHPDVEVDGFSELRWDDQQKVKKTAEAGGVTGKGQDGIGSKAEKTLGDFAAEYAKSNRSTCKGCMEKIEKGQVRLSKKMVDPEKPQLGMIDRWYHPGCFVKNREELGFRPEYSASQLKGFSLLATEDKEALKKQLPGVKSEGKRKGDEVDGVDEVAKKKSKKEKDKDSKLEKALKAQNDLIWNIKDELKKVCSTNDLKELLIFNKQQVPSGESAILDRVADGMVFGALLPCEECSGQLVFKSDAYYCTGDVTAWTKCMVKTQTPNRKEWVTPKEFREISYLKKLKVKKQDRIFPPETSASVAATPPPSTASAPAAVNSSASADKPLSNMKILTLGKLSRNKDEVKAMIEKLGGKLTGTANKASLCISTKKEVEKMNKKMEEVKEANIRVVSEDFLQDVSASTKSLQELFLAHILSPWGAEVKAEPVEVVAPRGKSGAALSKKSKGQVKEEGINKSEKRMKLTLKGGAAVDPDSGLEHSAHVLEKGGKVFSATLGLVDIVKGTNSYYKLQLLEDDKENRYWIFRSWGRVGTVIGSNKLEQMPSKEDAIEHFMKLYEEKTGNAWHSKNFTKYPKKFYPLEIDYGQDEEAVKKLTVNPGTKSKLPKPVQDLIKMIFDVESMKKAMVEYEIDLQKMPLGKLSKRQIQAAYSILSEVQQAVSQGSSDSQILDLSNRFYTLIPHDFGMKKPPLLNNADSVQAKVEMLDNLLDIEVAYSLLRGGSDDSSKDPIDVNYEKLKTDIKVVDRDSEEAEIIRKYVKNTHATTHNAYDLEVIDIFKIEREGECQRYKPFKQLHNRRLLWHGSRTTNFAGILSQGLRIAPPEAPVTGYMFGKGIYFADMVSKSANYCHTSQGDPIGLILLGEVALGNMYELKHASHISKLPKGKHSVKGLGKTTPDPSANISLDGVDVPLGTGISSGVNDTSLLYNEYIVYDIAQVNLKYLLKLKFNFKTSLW
Sequence of Vascular endothelial growth factor receptor 2 (P35968 whole entry): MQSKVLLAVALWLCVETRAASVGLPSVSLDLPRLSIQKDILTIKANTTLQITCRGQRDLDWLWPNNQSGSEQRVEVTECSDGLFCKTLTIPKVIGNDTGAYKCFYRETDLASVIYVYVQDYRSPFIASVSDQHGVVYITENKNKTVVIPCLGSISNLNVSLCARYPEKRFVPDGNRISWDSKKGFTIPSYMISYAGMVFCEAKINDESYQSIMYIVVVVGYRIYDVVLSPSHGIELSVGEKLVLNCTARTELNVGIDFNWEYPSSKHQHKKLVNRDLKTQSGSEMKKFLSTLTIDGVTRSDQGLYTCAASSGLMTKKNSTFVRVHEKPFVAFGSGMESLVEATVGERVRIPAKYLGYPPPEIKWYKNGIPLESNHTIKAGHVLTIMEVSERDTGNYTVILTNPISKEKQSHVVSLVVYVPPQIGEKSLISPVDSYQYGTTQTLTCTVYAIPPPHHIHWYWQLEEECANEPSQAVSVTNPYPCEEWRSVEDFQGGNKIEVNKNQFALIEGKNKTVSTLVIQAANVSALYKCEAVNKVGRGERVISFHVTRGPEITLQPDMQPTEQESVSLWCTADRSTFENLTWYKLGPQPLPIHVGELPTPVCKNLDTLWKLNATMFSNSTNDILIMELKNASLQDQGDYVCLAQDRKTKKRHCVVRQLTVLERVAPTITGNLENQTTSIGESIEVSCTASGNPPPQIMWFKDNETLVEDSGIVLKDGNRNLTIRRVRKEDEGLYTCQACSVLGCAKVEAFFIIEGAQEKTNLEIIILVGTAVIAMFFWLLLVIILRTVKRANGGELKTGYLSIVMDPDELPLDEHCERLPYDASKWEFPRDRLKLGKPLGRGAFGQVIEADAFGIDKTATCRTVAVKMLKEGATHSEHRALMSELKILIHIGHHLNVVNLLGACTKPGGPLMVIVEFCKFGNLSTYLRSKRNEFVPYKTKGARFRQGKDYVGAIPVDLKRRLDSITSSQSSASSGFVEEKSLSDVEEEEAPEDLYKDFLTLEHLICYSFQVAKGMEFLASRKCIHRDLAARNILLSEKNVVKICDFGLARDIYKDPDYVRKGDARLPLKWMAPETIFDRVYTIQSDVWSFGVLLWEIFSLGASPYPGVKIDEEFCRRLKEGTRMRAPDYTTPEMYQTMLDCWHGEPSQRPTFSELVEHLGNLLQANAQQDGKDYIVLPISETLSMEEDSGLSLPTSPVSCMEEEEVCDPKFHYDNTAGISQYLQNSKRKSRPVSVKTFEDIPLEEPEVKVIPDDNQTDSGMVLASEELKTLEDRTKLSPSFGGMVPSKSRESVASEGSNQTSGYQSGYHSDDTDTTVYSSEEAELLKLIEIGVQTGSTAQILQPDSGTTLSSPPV

In the case of Cc1ccc(Nc2nccc(N(C)c3ccc4c(C)n(C)nc4c3)n2)cc1S(N)(=O)=O [PAZOPANIB], the IC50 [1] is reported as > 10 µM, the Activity [2] is reported as “Active” and the IC50 [3] is reported as > 10 µM. For the same compound, the IC50 [4] was > 10 µM, the Activity [5] was “Active” and the Activity [6] was “Active”. For the same compound, the Activity [7] was “Active”, the Activity [8] was “Active” and the IC50 [9] was 4.6 µM. The Activity [10] was “Active”, the Activity [11] was “Active” and the Activity [12] was “Active”. The inhibition [13] was “Active”, the Activity [14] was “Active” and the IC50 [15] was > 10 µM. For the same compound, the Activity [16] was “Active”, the Activity [17] was “Active” and the Activity [18] was “Active”. For the same compound, the Activity [19] was “Active”, the Activity [20] was “Active” and the Activity [21] was “Active”. The inhibition [22] was “Active”, the Activity [23] was “Active” and the Activity [24] was “inactive”. For the same compound, the Activity [25] was “Active”, the Activity [26] was “Active” and the Activity [27] was “Active”. The Activity [28] was “Active”, the Activity [29] was “Active” and the Activity [30] was “Active”. For the same compound, the Activity [31] was “Active”, the Activity [32] was “Active” and the IC50 [33] was > 10 µM. For the same compound, the inhibition [34] was “Active”.
